Results published in PubChem BioAssay (NCI).
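A five-concentration, 48-hour dose response in 96-well plates underlies each endpoint, interpolated linearly between surrounding concentrations. TGI marks complete inhibition of growth.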

Key:
Test in all cases: growth of human tumour cells (NCI), 48 h
[1] = test system: EKVX NSCLC
[2] = test system: HOP-62 NSCLC
[3] = test system: RPMI-8226 leukemia
[4] = test system: TK-10 renal
[5] = test system: A549 NSCLC
[6] = test system: ACHN renal
[7] = test system: HOP-92 NSCLC
[8] = test system: HCT-15 colon
[9] = test system: OVCAR-3 ovarian
[10] = test system: MCF7 breast
[11] = test system: SK-MEL-28 melanoma
[12] = test system: OVCAR-5 ovarian
[13] = test system: KM12 colon
[14] = test system: U251 CNS
[15] = test system: SF-539 CNS
[16] = test system: SNB-19 CNS
[17] = test system: SN12C renal
[18] = test system: CCRF-CEM leukemia
[19] = test system: SK-MEL-5 melanoma
[20] = test system: MDA-MB-435
[21] = test system: COLO 205 colon
[22] = test system: M14 melanoma
[23] = test system: HT29 colon
[24] = test system: MOLT-4 leukemia
[25] = test system: RXF 393 renal
[26] = test system: OVCAR-4 ovarian
[27] = test system: 786-0 renal
[28] = test system: MDA-MB-231 breast
[29] = test system: MALME-3M melanoma
[30] = test system: K-562 leukemia
[31] = test system: HCT-116 colon
[32] = test system: UACC-62 melanoma
[33] = test system: OVCAR-8 ovarian
[34] = test system: SK-OV-3 ovarian
[35] = test system: UACC-257 melanoma
[36] = test system: SNB-75 CNS
[37] = test system: NCI-H460 lung
[38] = test system: NCI-H226 lung
[39] = test system: NCI-H23 lung
[40] = test system: HCC-2998 colon
[41] = test system: DU-145 prostate
[42] = test system: LOX IMVI melanoma
[43] = test system: IGROV1 ovarian
[44] = test system: SK-MEL-2 melanoma
[45] = test system: NCI/ADR-RES ovarian
[46] = test system: PC-3 prostate
[47] = test system: BT-549 breast
[48] = test system: SF-268 CNS
[49] = test system: SF-295 CNS
[50] = test system: HS 578T breast
[51] = test system: SW-620 colon
[52] = test system: UO-31 renal
[53] = test system: MDA-N
[54] = test system: A498 renal
[55] = test system: SR leukemia
[56] = test system: NCI-H522 lung
[57] = test system: CAKI-1 renal
[58] = test system: T-47D breast

Measured: TGI

COC(=O)Cc1c(-c2[nH]c3ccccc3c2CC(=O)OC)[nH]c2ccccc12
> 41.2 µM: [9]
> 100 µM: [1] | [2] | [3] | [4] | [5] | [6] | [7] | [8] | [10] | [11] | [12] | [13] | [14] | [15] | [16] | [17] | [18] | [19] | [20] | [21] | [22] | [23] | [24] | [25] | [26] | [27] | [28] | [29] | [30] | [31] | [32] | [33] | [34] | [35] | [36] | [37] | [38] | [39] | [40] | [41] | [42] | [43] | [44] | [45] | [46] | [47] | [48] | [49] | [50] | [51] | [52] | [53] | [54] | [55] | [56] | [57] | [58]

Nc1nc(N)c2ncn(-c3ccc(Br)cc3)c2n1
> 59.8 µM: [2]
> 61.9 µM: [54]
> 93.2 µM: [39]
41.5 µM: [43] | [44]
46.5 µM: [15]
> 45.6 µM: [23]
38.3 µM: [30]
> 73.1 µM: [12]
37.3 µM: [24]
75.6 µM: [17]
> 45.7 µM: [13]
> 45.3 µM: [57]
> 69.2 µM: [22]
> 57.1 µM: [10]
> 44.9 µM: [29]
25.3 µM: [50]
> 86.1 µM: [28]
> 64 µM: [9]
> 52.8 µM: [6]
73.9 µM: [34]
50.8 µM: [45]
> 42.5 µM: [56]
31.2 µM: [36]
> 78.6 µM: [25]
> 66.8 µM: [32]
> 38.1 µM: [7]
34.7 µM: [18]
> 55.7 µM: [33]
> 50.6 µM: [52]
88.4 µM: [1]
> 56.1 µM: [3]
> 63.8 µM: [48]
> 100 µM: [4] | [5] | [8] | [11] | [14] | [16] | [19] | [20] | [21] | [26] | [27] | [31] | [35] | [37] | [38] | [40] | [41] | [42] | [47] | [49] | [51] | [53] | [58]
> 65 µM: [46]
3.2 µM: [55]
